In ChEMBL document CHEMBL5143615, “Novel 2-aryl-4-aryloxyquinoline-based fungistatics for Mucor circinelloides. Biological evaluation of activity, QSAR and docking study” (Bioorg Med Chem Lett, 2022):

Experiments:
Format in all cases: functional
Design in all cases: scale not given: the % may be the effect or the level left
[1] = tested on: Mucor circinelloides; assay: Antifungal activity against Mucor circinelloides M5 strain assessed as reduction in spore germination at 100 ug/ml relative to control; details: dose 100 µg/ml
[2] = tested on: Mucor circinelloides; assay: Antifungal activity against Mucor circinelloides R7B wild type strain assessed as reduction in spore germination at 100 ug/ml relative to control; details: dose 100 µg/ml
[3] = tested on: Mucor circinelloides; assay: Antifungal activity against Mucor circinelloides R7B wild type strain assessed as reduction in spore germination at 150 ug/ml relative to control; details: dose 150 µg/ml
[4] = tested on: Mucor circinelloides; assay: Antifungal activity against Mucor circinelloides M5 strain assessed as reduction in spore germination at 25 ug/ml relative to control; details: dose 25 µg/ml
[5] = tested on: Mucor circinelloides; assay: Antifungal activity against Mucor circinelloides M5 strain assessed as reduction in spore germination at 150 ug/ml relative to control; details: dose 150 µg/ml
[6] = tested on: Mucor circinelloides; assay: Antifungal activity against Mucor circinelloides R7B wild type strain assessed as reduction in spore germination at 50 ug/ml relative to control; details: dose 50 µg/ml
[7] = tested on: Mucor circinelloides; assay: Antifungal activity against Mucor circinelloides R7B wild type strain assessed as reduction in spore germination at 25 ug/ml relative to control; details: dose 25 µg/ml
[8] = tested on: Mucor circinelloides; assay: Antifungal activity against Mucor circinelloides M5 strain assessed as reduction in spore germination at 50 ug/ml relative to control; details: dose 50 µg/ml

| Compound | Activity [1] | Activity [2] | also measured |
| --- | --- | --- | --- |
| O=[N+]([O-])c1ccc(Oc2cc(-c3cccc(Cl)c3)nc3ccccc23)cc1 | 21.9% | 32.7% | – |
| c1ccc(Oc2cc(-c3ccc4c(c3)OCO4)nc3ccccc23)cc1 | 29.5% | 28.2% | Activity [3]: 21.6%; Activity [4]: 69.7%; Activity [5]: 23.4%; Activity [6]: 47.6%; Activity [7]: 74.2%; Activity [8]: 52.8% |
| O=[N+]([O-])c1ccc(Oc2cc(-c3ccc(Cl)c(Cl)c3)nc3ccccc23)cc1 | 85.9% | 83.9% | – |
| Clc1cccc(-c2cc(Oc3ccccc3)c3ccccc3n2)c1 | 85.6% | 89.1% | – |
| COc1ccc(-c2cc(Oc3ccccc3)c3ccccc3n2)cc1 | 92.1% | 94.3% | – |
| COc1cc(-c2ccc(Cl)cc2)nc2ccccc12 | 97.3% | 98.1% | – |
| O=[N+]([O-])c1ccc(Oc2cc(-c3ccccc3)nc3ccccc23)cc1 | 98.2% | 98.1% | – |
| Clc1ccc(-c2cc(Oc3ccccc3)c3ccccc3n2)cc1Cl | 57.8% | 60.8% | – |
| COc1cc(-c2ccccc2)nc2ccccc12 | 95.8% | 97.8% | – |
| c1ccc(-c2ccc3ccccc3n2)cc1 [2-PHENYLQUINOLINE] | 98.2% | 98.1% | – |
| COc1cc(-c2cc(F)cc(F)c2)nc2ccccc12 | 29.7% | 32.8% | – |
| COc1cc(-c2cccc(C(F)(F)F)c2)nc2ccccc12 | 89.7% | 88.9% | – |
| COc1ccc(-c2cc(OC)c3ccccc3n2)cc1OC | 96.2% | 97.1% | – |
| FC(F)(F)c1ccc(Oc2cc(-c3cccc(Cl)c3)nc3ccccc23)cc1 | 38.3% | 42.2% | – |
